Tests used:
[1] = Antiproliferative activity against chinese hamster MTXRII-OuaR2-4 cells expressing empty pCDNA3.1 after 96 hrs by celltiter-blue cell viability assay; settings: Cricetulus griseus
IGROV-1 [2] = experiment: Antiproliferative activity against human IGROV1 cells expressing human reduced folate carrier/folate receptor alpha after 96 hrs by celltiter-blue cell viability assay in presence of folic acid; settings: IGROV-1, 96 h
KB [3] = experiment: Antiproliferative activity against human KB cells expressing human reduced folate carrier/folate receptor alpha after 96 hrs by celltiter-blue cell viability assay
[4] = Antiproliferative activity against chinese hamster MTXRII-OuaR2-4 cells expressing human proton-coupled folate transporter after 96 hrs by celltiter-blue cell viability assay; settings: Cricetulus griseus
[5] = Antiproliferative activity against chinese hamster D4 cells expressing human folate receptor beta after 96 hrs by celltiter-blue cell viability assay in presence of folic acid; settings: Cricetulus griseus, D4, 96 h
IGROV-1 [6] = experiment: Antiproliferative activity against human IGROV1 cells expressing human reduced folate carrier/folate receptor alpha after 96 hrs by celltiter-blue cell viability assay; settings: IGROV-1, 96 h
KB [7] = experiment: Antiproliferative activity against human KB cells expressing human reduced folate carrier/folate receptor alpha after 96 hrs by celltiter-blue cell viability assay in presence of folic acid
[8] = Antiproliferative activity against chinese hamster RT16 cells expressing human folate receptor alpha after 96 hrs by celltiter-blue cell viability assay; settings: Cricetulus griseus, RT16, 96 h
[9] = molecular target: Folate receptor beta (Homo sapiens) (UniProt P14207); experiment: Displacement of [3H]folic acid from human folate receptor beta in chinese hamster D4 cells assessed as relative binding affinity relative to folic acid; assay type: cell-based
[10] = Antiproliferative activity against chinese hamster RT16 cells expressing human folate receptor alpha after 96 hrs by celltiter-blue cell viability assay in presence of folic acid; settings: Cricetulus griseus, RT16, 96 h
[11] = Antiproliferative activity against chinese hamster D4 cells expressing human folate receptor beta after 96 hrs by celltiter-blue cell viability assay; settings: Cricetulus griseus, D4, 96 h
[12] = Antiproliferative activity against chinese hamster PC43-10 cells expressing human reduced folate carrier after 96 hrs by celltiter-blue cell viability assay; settings: Cricetulus griseus, PC43-10, 96 h
[13] = molecular target: Folate receptor alpha (Homo sapiens) (UniProt P15328); experiment: Displacement of [3H]folic acid from human folate receptor alpha in chinese hamster RT16 cells assessed as relative binding affinity relative to folic acid; assay type: cell-based
[14] = Antiproliferative activity against chinese hamster MTXRII-OuaR2-4 cells expressing human reduced folate carrier after 96 hrs by celltiter-blue cell viability assay; settings: Cricetulus griseus
[15] = molecular target: T1, Trifunctional purine biosynthetic protein adenosine-3 (Homo sapiens, UniProt P22102); experiment: Inhibition of GARFTase in human KB cells assessed as inhibition of incorporation of [14C]glycine into [14C]formyl GAR after 30 mins in presence of azaserine
T1 sequence (P22102 whole entry): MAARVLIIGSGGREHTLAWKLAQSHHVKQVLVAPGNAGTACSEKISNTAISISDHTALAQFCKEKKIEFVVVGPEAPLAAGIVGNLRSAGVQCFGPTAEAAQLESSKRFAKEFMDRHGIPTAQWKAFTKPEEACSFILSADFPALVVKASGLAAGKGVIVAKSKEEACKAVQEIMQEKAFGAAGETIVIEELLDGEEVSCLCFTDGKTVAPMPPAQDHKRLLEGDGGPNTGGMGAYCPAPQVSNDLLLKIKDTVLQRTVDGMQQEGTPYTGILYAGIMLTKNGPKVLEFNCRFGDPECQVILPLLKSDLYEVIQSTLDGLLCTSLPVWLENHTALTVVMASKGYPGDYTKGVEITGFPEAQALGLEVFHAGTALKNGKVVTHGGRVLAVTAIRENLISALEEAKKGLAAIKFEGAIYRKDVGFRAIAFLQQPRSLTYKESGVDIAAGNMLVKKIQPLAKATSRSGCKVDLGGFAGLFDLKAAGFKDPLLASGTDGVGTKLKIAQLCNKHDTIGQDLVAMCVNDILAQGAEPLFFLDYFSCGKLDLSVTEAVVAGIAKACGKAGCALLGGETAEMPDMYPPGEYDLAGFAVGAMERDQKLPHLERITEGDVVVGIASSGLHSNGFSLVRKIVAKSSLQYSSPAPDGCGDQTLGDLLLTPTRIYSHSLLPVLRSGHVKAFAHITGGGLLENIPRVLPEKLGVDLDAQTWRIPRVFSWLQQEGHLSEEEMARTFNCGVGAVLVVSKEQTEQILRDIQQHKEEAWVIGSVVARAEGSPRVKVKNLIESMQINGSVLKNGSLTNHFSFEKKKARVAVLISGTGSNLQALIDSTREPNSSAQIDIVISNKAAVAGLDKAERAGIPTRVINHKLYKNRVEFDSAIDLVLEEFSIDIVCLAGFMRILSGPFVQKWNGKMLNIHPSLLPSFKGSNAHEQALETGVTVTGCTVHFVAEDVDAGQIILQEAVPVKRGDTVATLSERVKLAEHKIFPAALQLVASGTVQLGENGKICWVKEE

[16] = molecular target: T2, Trifunctional purine biosynthetic protein adenosine-3 (Mus musculus, UniProt Q64737); experiment: Inhibition of mouse recombinant GARFTase
T2 sequence (Q64737 whole entry): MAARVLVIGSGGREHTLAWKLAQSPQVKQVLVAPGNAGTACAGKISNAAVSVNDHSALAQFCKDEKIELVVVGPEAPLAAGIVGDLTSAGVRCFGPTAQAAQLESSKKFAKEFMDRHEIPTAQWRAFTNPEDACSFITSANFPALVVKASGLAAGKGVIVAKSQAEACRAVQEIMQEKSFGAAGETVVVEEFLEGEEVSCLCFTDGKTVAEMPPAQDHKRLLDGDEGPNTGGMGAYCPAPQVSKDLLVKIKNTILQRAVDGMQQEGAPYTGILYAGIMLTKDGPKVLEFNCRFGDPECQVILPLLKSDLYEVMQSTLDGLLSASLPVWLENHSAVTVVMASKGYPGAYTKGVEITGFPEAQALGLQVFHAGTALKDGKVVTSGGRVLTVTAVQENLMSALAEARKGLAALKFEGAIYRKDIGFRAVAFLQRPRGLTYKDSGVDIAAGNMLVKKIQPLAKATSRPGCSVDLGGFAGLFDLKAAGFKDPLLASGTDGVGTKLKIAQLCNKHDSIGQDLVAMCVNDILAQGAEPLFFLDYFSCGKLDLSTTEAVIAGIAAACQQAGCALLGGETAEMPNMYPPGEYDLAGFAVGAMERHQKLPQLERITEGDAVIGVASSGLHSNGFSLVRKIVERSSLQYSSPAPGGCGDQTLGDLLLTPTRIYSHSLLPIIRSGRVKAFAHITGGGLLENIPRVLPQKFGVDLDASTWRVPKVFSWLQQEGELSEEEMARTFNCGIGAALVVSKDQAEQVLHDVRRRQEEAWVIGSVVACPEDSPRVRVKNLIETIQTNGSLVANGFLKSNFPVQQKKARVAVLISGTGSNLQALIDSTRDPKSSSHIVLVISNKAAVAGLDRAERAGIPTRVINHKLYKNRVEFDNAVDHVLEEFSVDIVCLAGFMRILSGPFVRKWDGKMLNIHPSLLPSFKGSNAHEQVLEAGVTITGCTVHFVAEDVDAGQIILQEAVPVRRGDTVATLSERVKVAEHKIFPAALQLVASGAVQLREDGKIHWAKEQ

Chain of Folate receptor beta (Homo sapiens) (P14207 17-230 limits assumed): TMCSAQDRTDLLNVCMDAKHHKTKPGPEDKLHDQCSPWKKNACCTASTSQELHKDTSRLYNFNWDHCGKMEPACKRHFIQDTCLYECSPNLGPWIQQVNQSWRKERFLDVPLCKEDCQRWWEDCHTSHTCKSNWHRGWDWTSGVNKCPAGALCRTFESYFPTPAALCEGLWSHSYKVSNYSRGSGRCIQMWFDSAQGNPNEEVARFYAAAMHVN
Chain of Folate receptor alpha (Homo sapiens) (P15328 25-234 limits assumed): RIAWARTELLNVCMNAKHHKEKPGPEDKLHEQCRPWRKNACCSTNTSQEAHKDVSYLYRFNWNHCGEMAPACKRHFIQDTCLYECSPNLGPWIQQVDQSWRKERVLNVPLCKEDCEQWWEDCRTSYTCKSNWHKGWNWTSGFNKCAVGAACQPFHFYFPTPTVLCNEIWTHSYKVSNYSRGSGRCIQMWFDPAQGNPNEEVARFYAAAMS

Compound	IC50 [1] [µM]	IC50 (IGROV-1 [2]) [µM]	IC50 (KB [3]) [µM]	IC50 [4] [µM]	IC50 [5] [µM]	IC50 (IGROV-1 [6]) [µM]	IC50 (KB [7]) [µM]	IC50 [8] [µM]	relative binding affinity (RBA) [9]	IC50 [10] [µM]	IC50 [11] [µM]	IC50 [12] [µM]	relative binding affinity (RBA) [13]	IC50 [14] [µM]	IC50 [15] [µM]	IC50 [16] [µM]
Nc1nc2sc(CCCCCCCc3ccc(C(=O)N[C@@H](CCC(=O)O)C(=O)O)cc3)cc2c(=O)[nH]1	> 1	> 1	> 1	> 1	> 1	> 1	> 1	> 1	> 0.8	> 1	> 1	> 1	> 0.8	> 1		
Nc1nc2sc(CCCCc3ccc(C(=O)N[C@@H](CCC(=O)O)C(=O)O)cc3)cc2c(=O)[nH]1	> 1	> 1		> 1	> 1		> 1		> 0.8	> 1		> 1	> 0.8	> 1		
Nc1nc2sc(CCCCCCc3ccc(C(=O)N[C@@H](CCC(=O)O)C(=O)O)cc3)cc2c(=O)[nH]1	> 1	> 1		> 1	> 1	0.334	> 1	0.108	> 0.8	> 1	0.364	> 1	> 0.8	> 1	0.0266	
Nc1nc2sc(CCCCCc3ccc(C(=O)N[C@@H](CCC(=O)O)C(=O)O)cc3)cc2c(=O)[nH]1	> 1	> 1	0.132	> 1	> 1		> 1		> 0.8	> 1		> 1	> 0.8	> 1	0.0236	
Nc1nc2sc(CCCCCCCCc3ccc(C(=O)N[C@@H](CCC(=O)O)C(=O)O)cc3)cc2c(=O)[nH]1	> 1	> 1	> 1	> 1	> 1	> 1	> 1	> 1	> 0.8	> 1	> 1	> 1	> 0.8	> 1		
Nc1nc2sc(CCc3ccc(C(=O)N[C@@H](CCC(=O)O)C(=O)O)cc3)cc2c(=O)[nH]1	> 1	> 1	> 1	> 1	> 1	> 1	> 1	> 1	< 0.01	> 1	> 1	> 1	0.25	> 1	0.0323	> 20
Nc1nc2sc(CCCc3ccc(C(=O)N[C@@H](CCC(=O)O)C(=O)O)cc3)cc2c(=O)[nH]1	> 1	> 1		> 1	> 1		> 1		> 0.8	> 1	0.112	> 1	> 0.8	> 1		8.52
CN(Cc1cnc2nc(N)nc(N)c2n1)c1ccc(C(=O)N[C@@H](CCC(=O)O)C(=O)O)cc1													0.8			

From ChEMBL document CHEMBL1138482 (J Med Chem, 2009)
